In publication PMC10817945, “Design of a novel analogue peptide with potent antibiofilm activities against Staphylococcus aureus based upon a sapecin B-derived peptide” (Scientific Reports, 2024):
Values after ≈ are worked out from the molar mass of the structure shown. Read-outs that look alike come from different tables or passages of the source. Non-standard residues stand in square brackets, D forms with d. Residues, ends and D or L forms follow the SMILES beside them.

Legend:
[1] = system: preformed S. aureus biofilms; format: cell-based, Staphylococcus aureus
Protocol: The eradicative activity of KLK and mKLK peptides against preformed S. aureus biofilms was evaluated by determining MBEC, as previously described. The 24-h biofilms developed in TSB in a 96-well plate were washed three times with 200 μl PBS solution. Concentrations of the peptides ranging from 2 to 1024 µg/ml were prepared. A volume of 100 μl of each concentration was added to a corresponding well, and plates were incubated for 18–20 h at 37 °C. Then, wells were washed with sterile PBS solution, and 100 μl of PBS solution was added. The wells were thoroughly scraped with a sterile pipette tip, vortexed and sonicated to release the biofilm cells from the well surface. Subsequently, 10 μl of well contents were plated on MHA. Colonies were counted after 20 h at 37 °C. The MBEC was defined as the lowest concentration of peptide that inhibited bacterial regrowth.

[2] = system: one MRSA and reference strain (ATCC25923); experiment: Time-kill kinetics assay
Protocol: The peptide-free control was included for each strain. Following incubation at 37 °C for 0, 0.25, 0.5, 1, 2, 4, 5, and 24 h, each sample was serially diluted, plated onto Mueller–Hinton (MH) agar (Merck, Germany) plates and incubated at 37 °C. The viable plate count method was performed after incubation for 24 h and the counts were expressed as Log CFU/ml[44].

Human red blood cells = experiment: in vitro
Protocol: The assay was performed using fresh human blood samples containing citrate phosphate dextrose anticoagulant collected from a blood bank (Iranian Blood Transfusion Organization). Human red blood cells (RBC) were centrifuged at 1700×g for 5 min; then the supernatant was removed and the erythrocyte pellet was diluted 1:100 in PBS to obtain a 1% erythrocyte suspension. […] Then, 50 μl of the 1% erythrocyte suspension and 50 μl of the peptides were mixed and added to wells of a 96-well polypropylene conical bottom microplate and incubated at 37 °C for 1 h. Following centrifugation of the samples at 1700×g for 5 min, 50 μl of the supernatant was transferred to wells of a 96-well flat-bottom plate for the absorbance measurement at 405 nm in a microplate reader. Identical volumes of Triton X-100 (1%) and PBS were used as positive and negative controls, respectively. The selectivity indexes (SI) were also determined as a toxicity indicator.

S. aureus isolates [3] = experiment: microbe, parasite or virus in culture; format: cell-based, Staphylococcus aureus
Protocol: (§1) Minimum inhibitory concentrations (MIC) of KLK, mKLK, and vancomycin were determined using microdilution broth assay according to clinical and laboratory standards institute (CLSI) guidelines with some modifications. Briefly, overnight cultures were diluted in Muller-Hinton broth (MHB; Merck, Germany) to achieve a final density of 5 × 10^5 CFU/ml. A volume of 100 μl of bacterial suspension was added to wells of sterile 96-well plates containing 100 μl of two-fold peptide dilutions, ranging from 0.25 to 256 µg/ml. Vancomycin was used as a positive control in this assay. […] MBC was determined by removing samples from wells with no visible growth, serially diluting, and plating on Mueller Hinton (MH) agar plates for CFU counting.

S. aureus isolates [4] = format: cell-based, Staphylococcus aureus
Protocol: as §1

S. aureus strains = experiment: Inhibition of bacterial surface attachment (crystal violet); format: cell-based, Staphylococcus aureus
Protocol: To investigate the inhibitory effect of KLK and mKLK peptides on bacterial surface attachment and biofilm formation, the bacterial suspension in TSB with a concentration of 10^7 CFU/ml was prepared from overnight culture. An aliquot of 100 μl of the bacterial suspension was added to wells of 96-well plates containing 100 μl of the peptides solution with concentrations of 1×, 1/2× and 1/4× MIC, resulting in the final peptides concentrations of 1/2×, 1/4× and 1/8× MIC. To investigate the inhibitory effect of the peptides on surface attachment the incubation was performed at 37 °C for 2 h and to evaluate their inhibitory activity on biofilm formation the incubation was performed at 37 °C for 24 h. The wells containing only TSB medium were used as negative controls. After incubation, the contents of the wells were removed and washed three times with PBS and the wells were stained with 200 μl of 0.1% crystal violet for 20 min. The plates were washed again and excess dye was removed. A volume of 200 μl of 95% ethanol was added to each well for 20 min and absorbance was measured at 570 nm by a microplate reader.

24-h S. aureus biofilms = experiment: Biofilm dispersal activity (crystal violet); format: cell-based, Staphylococcus aureus
Protocol: To investigate the dispersal activity of KLK and mKLK peptide, the 24-h S. aureus biofilms were prepared in TSB medium in the 96-well plates. Then, the final concentrations of 1×, 2×, and 4 × MIC were prepared for each peptide in the wells. After incubation at 37 °C for 12 h, plates were washed with PBS three times to discard unattached bacteria. Subsequently, plates were stained with 250 μl of 0.5% crystal violet for 20 min at room temperature. Then, the wells were washed and 250 μl 33% acetic acid was added to them. Finally, the absorbance was measured at 570 nm using a microplate reader.

## CC(C)C[C@@H](NC(=O)[C@H](N)CCCCN)C(=O)N[C@H](CCCCN)C(=O)N[C@H](CC(C)C)C(=O)N[C@H](CC(C)C)C(=O)N[C@H](CC(C)C)C(=O)N[C@H](CC(C)C)C(=O)N[C@H](CC(C)C)C(=O)N[C@H](CCCCN)C(=O)N[C@H](CC(C)C)C(=O)N[C@H](CCCCN)C(N)=O [KLK] (H-[dK][dL][dK][dL][dL][dL][dL][dL][dK][dL][dK]-NH2; N-terminus assumed)
[1]; ATCC25923
  MBEC: 512 µg/mL
[1]; MRSA-1
  MBEC: 1024 µg/mL
[1]; MRSA-2
  MBEC: 1024 µg/mL
[1]; MRSA-3
  MBEC: 1024 µg/mL
[1]; MSSA-1
  MBEC: 512 µg/mL
[1]; MSSA-2
  MBEC: 512 µg/mL
[1]; preformed biofilms
  MBEC, range over isolates: 512 to 1024 µg/mL
[2]; ATCC 25923, 1 × MIC (4 μg/ml)
  time after which no regrowth was observed: 30 min
[2]; ATCC 25923, 2 × MIC (8 μg/ml)
  time after which no regrowth was observed: 15 min
[2]; MRSA, 1 × MIC
  time after which no regrowth was observed: 300 min
[2]; MRSA, 1 × MIC (8 μg/ml), within 2 h
  reduction in viable cell count: ~ 1 log
Human red blood cells
  HC50: 38.49 µg/mL
Human red blood cells; red cells of human, 1 h
  HC50: 29.1 µM
S. aureus isolates [3]; ATCC25923
  MIC: 4 µg/mL (≈ 3.03 µM)
S. aureus isolates [3]; MRSA-1
  MIC: 8 µg/mL (≈ 6.05 µM)
S. aureus isolates [3]; MRSA-2
  MIC: 8 µg/mL (≈ 6.05 µM)
S. aureus isolates [3]; MRSA-3
  MIC: 8 µg/mL (≈ 6.05 µM)
S. aureus isolates [3]; MSSA-1
  MIC: 4 µg/mL (≈ 3.03 µM)
S. aureus isolates [3]; MSSA-2
  MIC: 4 µg/mL (≈ 3.03 µM)
S. aureus isolates [3]; three MRSA isolates
  MIC: 8 µg/mL (≈ 6.05 µM)
S. aureus isolates [3]; two MSSA isolates
  MIC: 4 µg/mL (≈ 3.03 µM)
S. aureus isolates [4]; ATCC25923
  MBC: 4 µg/mL (≈ 3.03 µM)
S. aureus isolates [4]; MRSA-1
  MBC: 8 µg/mL (≈ 6.05 µM)
S. aureus isolates [4]; MRSA-2
  MBC: 8 µg/mL (≈ 6.05 µM)
S. aureus isolates [4]; MRSA-3
  MBC: 8 µg/mL (≈ 6.05 µM)
S. aureus isolates [4]; MSSA-1
  MBC: 4 µg/mL (≈ 3.03 µM)
S. aureus isolates [4]; MSSA-2
  MBC: 4 µg/mL (≈ 3.03 µM)
S. aureus strains; ATCC25923, 1/2MIC, control 2.136±0.01
  crystal violet absorbance at 570 nm, bacterial attachment, Mean±SD: 1.904±0.08
S. aureus strains; ATCC25923, 1/4MIC, control 2.136±0.01
  crystal violet absorbance at 570 nm, bacterial attachment, Mean±SD: 1.965±0.03
S. aureus strains; ATCC25923, 1/8MIC, control 2.136±0.01
  crystal violet absorbance at 570 nm, bacterial attachment, Mean±SD: 2.03±0.07
S. aureus strains; MRSA-1, 1/2MIC, control 1.861±0.02
  crystal violet absorbance at 570 nm, bacterial attachment, Mean±SD: 1.508±0.03
S. aureus strains; MRSA-1, 1/4MIC, control 1.861±0.02
  crystal violet absorbance at 570 nm, bacterial attachment, Mean±SD: 1.712±0.01
S. aureus strains; MRSA-1, 1/8MIC, control 1.861±0.02
  crystal violet absorbance at 570 nm, bacterial attachment, Mean±SD: 1.8±0.17
S. aureus strains; MRSA-2, 1/2MIC, control 2.311±0.005
  crystal violet absorbance at 570 nm, bacterial attachment, Mean±SD: 2.082±2.02
S. aureus strains; MRSA-2, 1/4MIC, control 2.311±0.005
  crystal violet absorbance at 570 nm, bacterial attachment, Mean±SD: 2.146±0.008
S. aureus strains; MRSA-2, 1/8MIC, control 2.311±0.005
  crystal violet absorbance at 570 nm, bacterial attachment, Mean±SD: 2.198±0.04
S. aureus strains; MRSA-3, 1/2MIC, control 1.491±0.06
  crystal violet absorbance at 570 nm, bacterial attachment, Mean±SD: 1.031±0.07
S. aureus strains; MRSA-3, 1/4MIC, control 1.491±0.06
  crystal violet absorbance at 570 nm, bacterial attachment, Mean±SD: 1.369±0.01
S. aureus strains; MRSA-3, 1/8MIC, control 1.491±0.06
  crystal violet absorbance at 570 nm, bacterial attachment, Mean±SD: 1.428±0.06
S. aureus strains; MSSA-1, 1/2MIC, control 2.107±0.08
  crystal violet absorbance at 570 nm, bacterial attachment, Mean±SD: 1.89±0.002
S. aureus strains; MSSA-1, 1/4MIC, control 2.107±0.08
  crystal violet absorbance at 570 nm, bacterial attachment, Mean±SD: 1.925±0.06
S. aureus strains; MSSA-1, 1/8MIC, control 2.107±0.08
  crystal violet absorbance at 570 nm, bacterial attachment, Mean±SD: 2.006±0.01
S. aureus strains; MSSA-2, 1/2MIC, control 2.061±0.01
  crystal violet absorbance at 570 nm, bacterial attachment, Mean±SD: 1.804±0.03
S. aureus strains; MSSA-2, 1/8MIC, control 2.061±0.01
  crystal violet absorbance at 570 nm, bacterial attachment, Mean±SD: 1.958±0.07
24-h S. aureus biofilms; ATCC25923, 1MIC, control 2.79±0.03
  crystal violet absorbance at 570 nm, dispersal activity, Mean±SD: 2.451±0.007
24-h S. aureus biofilms; ATCC25923, 2MIC, control 2.79±0.03
  crystal violet absorbance at 570 nm, dispersal activity, Mean±SD: 2.322±0.02
24-h S. aureus biofilms; ATCC25923, 4MIC, control 2.79±0.03
  crystal violet absorbance at 570 nm, dispersal activity, Mean±SD: 2.017±0.01
24-h S. aureus biofilms; MRSA-1, 1MIC, control 1.903±0.003
  crystal violet absorbance at 570 nm, dispersal activity, Mean±SD: 1.695±0.05
24-h S. aureus biofilms; MRSA-1, 2MIC, control 1.903±0.003
  crystal violet absorbance at 570 nm, dispersal activity, Mean±SD: 1.649±0.06
24-h S. aureus biofilms; MRSA-1, 4MIC, control 1.903±0.003
  crystal violet absorbance at 570 nm, dispersal activity, Mean±SD: 1.426±0.01
24-h S. aureus biofilms; MRSA-2, 1MIC, control 2.014±0.01
  crystal violet absorbance at 570 nm, dispersal activity, Mean±SD: 1.804±0.006
24-h S. aureus biofilms; MRSA-2, 2MIC, control 2.014±0.01
  crystal violet absorbance at 570 nm, dispersal activity, Mean±SD: 1.71±0.01
24-h S. aureus biofilms; MRSA-2, 4MIC, control 2.014±0.01
  crystal violet absorbance at 570 nm, dispersal activity, Mean±SD: 1.643±0.01
24-h S. aureus biofilms; MRSA-3, 2MIC, control 1.255±0.29
  crystal violet absorbance at 570 nm, dispersal activity, Mean±SD: 1.1±0.09
24-h S. aureus biofilms; MRSA-3, 4MIC, control 1.255±0.29
  crystal violet absorbance at 570 nm, dispersal activity, Mean±SD: 0.996±0.04
24-h S. aureus biofilms; MSSA-1, 1MIC, control 1.787±0.1
  crystal violet absorbance at 570 nm, dispersal activity, Mean±SD: 1.589±0.01
24-h S. aureus biofilms; MSSA-1, 2MIC, control 1.787±0.1
  crystal violet absorbance at 570 nm, dispersal activity, Mean±SD: 1.483±0.01
24-h S. aureus biofilms; MSSA-1, 4MIC, control 1.787±0.1
  crystal violet absorbance at 570 nm, dispersal activity, Mean±SD: 1.348±0.01
24-h S. aureus biofilms; MSSA-2, 1MIC, control 2.116±0.006
  crystal violet absorbance at 570 nm, dispersal activity, Mean±SD: 1.858±0.12
24-h S. aureus biofilms; MSSA-2, 2MIC, control 2.116±0.006
  crystal violet absorbance at 570 nm, dispersal activity, Mean±SD: 1.713±0.06
24-h S. aureus biofilms; MSSA-2, 4MIC, control 2.116±0.006
  crystal violet absorbance at 570 nm, dispersal activity, Mean±SD: 1.52±0.001
